This note sets out measurements from ChEMBL document CHEMBL1141271, “Laurendecumallenes A-B and laurendecumenynes A-B, halogenated nonterpenoid C(15)-acetogenins from the marine red alga Laurencia decumbens” (J Nat Prod, 2007).

Molecules are shown by their SMILES.

For this assay, the system named is A549. The experiment in a line: Cytotoxicity against human A549 cells. It is filed as functional, cell-based.
Turning to `C#C/C=C\C[C@@H]1O[C@@H]2C[C@H](Br)[C@H](CC)O[C@@H]2C[C@@H]1Br`, the IC50 (as a rule, the concentration that inhibits the measured activity by half) is more than 10 µg/mL.

Compound `CC[C@H]1O[C@@H]2C[C@@H](C=C=CBr)O[C@@H]2C[C@@H](O)[C@H](O)C[C@@H]1Br` [LAURENDECUMALLENE A] registered an IC50 of more than 10 µg/mL.

With `C#C/C=C\C[C@H]1O[C@@H]2C[C@H](Br)[C@@H](CC)O[C@H]1C[C@H]2OO` [LAURENDECUMENYNE A], the 50% inhibitory concentration (IC50) is more than 10 µg/mL.

`C#C/C=C\C[C@@H]1O[C@@H]2C[C@H](Br)[C@H](CC)O[C@@H]2C[C@@H]1Cl` [LAURENDECUMENYNE B] displayed an IC50 of more than 10 µg/mL.

`CC[C@@H](Br)[C@H]1C[C@H](O)[C@H](O)C[C@H]2O[C@H](C=C=CBr)C[C@H]2O1` [LAURENDECUMALLENE B] had an IC50 of more than 10 µg/mL.
